Structures are written as SMILES.

The nature of this data set: Particle size analysis of dalcetrapib crystals (Malvern MasterSizer 2000, laser diffraction). In kind it is physicochemical. Conditions: dispersant 0.1N HCl, sonicated 10 minutes. The method, then:
The particle size distribution of dalcetrapib crystals from the bulk API and in the matrix of a hot-melt extruded composition produced according to Example 1 was determined according to the following method:
A Malvern MasterSizer 2000 was used for particle size measurement. The Fraunhofer optical model employed for analysis. The sample handling unit was a Hydro 2000S sonicator: Elma Model 9331. Sample measurement time was 20,000 snaps. The sample background time was 20,000 snaps. The dispersant media was 0.1N HCl, and the pump/stir speed was 2000 RPM.
Sample preparation was as follows: About 10-15 mg of the sample was weighed in 20 mL scintillation vial and 10 mL of de-ionized 0.1N HCl was added. The sample was vortexed for 15 seconds and then sonicated for 10 minutes @ 100% power.
The particle size distribution of dalcetrapib crystals in the matrices of hot-melt extruded compositions produced according to Example 5 was determined according to the following method:
A Malvern MasterSizer® 2000 was used for particle size measurement. The Fraunhofer® optical model employed for analysis. The sample handling unit was a Hydro 2000S sonicator: Elma Model 9331. Sample measurement time was 20,000 snaps. The sample background time was 20,000 snaps. The dispersant media was 0.1N HCl, and the pump/stir speed was 2000 RPM
Sample preparation was as follows: About 10-15 mg of the sample was weighed in a 20 mL scintillation vial and 10 mL of de-ionized 0.1N HCl was added. The sample was vortexed for 15 seconds and then sonicated for 10 minutes at 100% power.

On to `CCC(CC)CC1(C(=O)Nc2ccccc2SC(=O)C(C)C)CCCCC1` [bulk dalcetrapib, dalcetrapib], for which the “mean particle diameter D(0.1)” value turned out to be 1.493 μm, the “mean particle diameter D(0.5)” value is on record as 12.317 μm and the “mean particle diameter D(0.9)” value is recorded as 28.828 μm.

The values above are taken from patent US20120213827A1, “PROCESS FOR CONTROLLED CRYSTALLIZATION OF AN ACTIVE PHARMACEUTICAL INGREDIENT FROM SUPERCOOLED LIQUID STATE BY HOT MELT EXTRUSION” (priority 2011, published 2012).
